{"source": "patent US7863335B2", "about": "“Non-antibiotic intervention of chlamydial infection” (The University of Medicine and Dentistry of New Jersey, priority 2004, dated 2011)", "key": {"[1]": {"test_system": "strain 434/bu of serovar L2 (L2, biovar LGV)", "assay": "MOMP immunofluorescence of inclusion formation in L2-infected HeLa cells", "format": "cell-based, Chlamydia trachomatis", "procedure": "Human cervical carcinoma HeLa cells grown on coverslips were exposed to an EB stock of strain 434/bu of serovar L2 (L2, biovar LGV) for 2 hours, washed to remove free EBs, and cultured in medium containing indicated concentrations of GM6001 plus 1 μg/ml cycloheximide, an inhibitor of eukaryotic protein synthesis which is commonly used to facilitate chlamydial growth. 40 hours later, cells were fixed with methanol, and reacted for 1 hour with a monoclonal antibody against the major outer membrane protein (MOMP) of L2. After three washes with PBS, coverslips were reacted with fluorescein isothiocyanate-conjugated goat anti-mouse IgG (Sigma, St. Louis, Mo.) for 30 min. After additional washes, coverslips were mounted onto glass slides and viewed with a Nikon Eclypse E1000 fluorescent microscope."}, "[2]": {"test_system": "E. coli MG1655", "assay": "Growth of E. coli in LB broth (OD600)", "format": "cell-based, Escherichia coli", "details": "overnight culture, concentrations indicated in FIG. 4A", "procedure": "(§1) An E. coli MG1655 colony was inoculated into 10 ml LB broth, which was then divided into 2 ml aliquots. After overnight culture, OD600 measurements were taken. An overnight L. delbrueckii (ATCC 12315) culture was diluted 1:100, and cultured in the presence or absence of 20 μM of GM 6001. OD600 values were measured hourly up to 5 h postinoculation."}, "[3]": {"test_system": "L2 (biovar LGV)", "assay": "Dot blot analysis of MOMP, L2 growth in A549 cells", "format": "cell-based, Chlamydia trachomatis", "details": "40 hours after infection, 1 μg/ml cycloheximide", "procedure": "Infection of A549 cells and inhibitor treatment were carried out as described above. 40 hours after infection, cells were lysed in 200 μl of H2O, a 50 μl sample of the resulting EB/RB extract was blotted onto Zeta Probe membrane (Bio-Rad), and sequentially reacted with the L2 MOMP antibody described above, and horseradish peroxidase-conjugated rabbit anti-mouse IgG."}, "[4]": {"test_system": "L2 (biovar LGV)", "assay": "Live images (light microscope) of inclusion formation in L2-infected HeLa cells", "format": "cell-based, Chlamydia trachomatis", "details": "in both the presence and absence of cycloheximide", "excerpt": "The inhibition of L2 growth by GM6001 could be viewed directly under a light microscope without immunostaining. Shown in FIG. 1C are images obtained from live cultures."}, "[5]": {"test_system": "HeLa cells", "assay": "Cytotoxicity judged by cellular morphology of HeLa cells", "format": "cell-based, Human"}, "[6]": {"test_system": "HeLa cells", "assay": "DNA synthesis ([methyl-3H]thymidine incorporation) in HeLa cells", "format": "cell-based, Human", "procedure": "(§2) The lack of cytotoxic activity in GM6001 was further supported by measuring DNA synthesis. Subconfluent cells grown in 24 well plates were fed with medium (0.5 ml/well) containing indicated concentrations of GM6001 for 40 hours. 2 μl of [methyl-3H]thymidine (specific activity: 20 Ci/mmole, Moravek Biochemical, Brea, Calif.) was added into the culture and incubated for 2 hours. The amount of thymidine incorporated into DNA was determined as we previously described (3)."}, "[7]": {"test_system": "A549 cells", "assay": "DNA synthesis ([methyl-3H]thymidine incorporation) in A549 cells", "format": "cell-based, Human", "procedure": "as §2"}, "[8]": {"test_system": "strain UW-3/Cx of serovar D (biovar trachomatis)", "assay": "Chlamydial lipopolysacharide immunostaining of inclusion formation, serovar D in HeLa cells", "format": "cell-based, Chlamydia trachomatis"}, "[9]": {"test_system": "MoPn (biovar mouse)", "assay": "Chlamydial DNA synthesis of MoPn (biovar mouse)", "format": "cell-based, Chlamydia trachomatis", "details": "dose response", "procedure": "We next tested whether GM6001 was also effective against the remaining two biovars of C. trachomatis. […] The effect of GM6001 on biovar mouse was determined by measuring chlamydial DNA synthesis with procedures that we previously detailed (1, 3)."}, "[10]": {"test_system": "L2", "assay": "Dot blot analysis of MOMP, L2 growth in HeLa cells", "format": "cell-based, Chlamydia trachomatis"}, "[11]": {"test_system": "L2", "assay": "Pretreatment of host HeLa cells or EBs with GM6001, immunostaining of L2 growth", "format": "cell-based, Chlamydia trachomatis", "procedure": "To address whether suppression of chlamydial growth resulted from inhibition of host or bacterial enzymes, we determined the effect of pretreatment of EB and host cells with a hydroxamate on chlamydial growth. HeLa cells were cultured for 2 h with medium containing 20 °μM GM6001 and washed 3 times with medium before they were infected with a regular EB stock. Likewise, an EB stock was also incubated with GM6001, washed, and added to untreated HeLa cells. As control, GM6001 (final concentration: 20 μM) was added into and maintained in the culture medium after the attachment/entry period."}, "[12]": {"test_system": "L. delbrueckii (ATCC 12315)", "assay": "Growth of L. delbrueckii in liquid culture (OD600)", "format": "cell-based, Lactobacillus delbrueckii", "details": "20 μM, hourly up to 5 h postinoculation", "procedure": "as §1"}, "[13]": {"test_system": "Salmonella Enterica Serovar Typhimurium", "assay": "Growth of S. enterica as free-living organism in liquid medium (OD600)", "format": "cell-based"}, "[14]": {"test_system": "Salmonella Enterica Serovar Typhimurium", "assay": "Intracellular growth of S. enterica in HeLa cells (colony-forming units)", "format": "cell-based", "details": "20 μM, 1.5 and 6 h, 50 μg/ml gentamycin", "description": "To assess whether its intracellular growth is affected by the inhibitor, HeLa cells were infected with a fresh culture of S. enterica grown to stationary phase as previously described (16). After washes to remove free bacteria, the cells were cultured with medium containing 50 μg/ml gentamycin (to kill any residual free bacteria) plus or minus 20 μM GM6001 for 1.5 and 6 h. Gentamycin was then removed by washes. Intracellular bacteria were released by 0.1% Triton X-100, serially diluted and plated onto LB agar plates. After overnight incubation at 37° C., colony-forming units were scored."}, "[15]": {"test_system": "Chlamydia", "assay": "Titration of infectious EBs produced by infected HeLa cells", "format": "cell-based, Chlamydia trachomatis", "procedure": "Inhibition of chlamydial growth was obtained when GM6001 and TAPI-0 was added to cultures at the end of the two hour attachment/entry period (FIGS. 1-3), a point where free unbound EBs had been removed by extensive washes. The entry-independent inhibition was also seen by titrating infectious EBs produced by infected HeLa cells (FIG. 6). […] At this point, EBs have already completed the entry phase and have differentiated into RBs in inclusions. Even when GM6001 treatment was started 24 h after infection, a point where the number of RBs peaks during the chlamydial developmental cycle, a 99% reduction in EB production was observed (FIG. 6)."}}, "note": "Read-outs that look alike come from different tables or passages of the source."}
{"smiles": "CC(C)C[C@H](CC(=O)NO)C(=O)N[C@@H](Cc1ccc2ccccc2c1)C(=O)N[C@@H](C)C(N)=O", "note": "[TAPI-0, N-(R)-[2-(Hydroxyaminocarbonyl)methyl]-4-methylpentanoyl-L-naphthylalanyl-L-alanine amide]", "values": [{"measurement": "inhibition of L2 infection (MOMP immunofluorescence)", "setting": "[1]; at both 7.5 and 15 μM", "value": "strongly inhibited"}, {"measurement": "growth of E. coli (OD600)", "setting": "[2]", "value": "did not show any effects"}]}
{"smiles": "CNC(=O)[C@H](Cc1c[nH]c2ccccc12)NC(=O)[C@@H](CC(=O)NO)CC(C)C", "note": "[GM6001]", "values": [{"measurement": "number of inclusions (L2 inclusion formation)", "setting": "[1]; increasing concentrations of GM6001 plus 1 μg/ml cycloheximide, 40 hours", "value": "number of inclusions declined progressively"}, {"measurement": "MOMP signal (L2 growth)", "setting": "[3]", "value": "no signal was detected"}, {"measurement": "inhibition of L2 growth / inclusion formation in live cultures", "setting": "[4]", "value": "effective against chlamydial infection"}, {"measurement": "cytotoxic effects based on morphology", "setting": "[5]; uninfected or L2-infected HeLa cells", "value": "no apparent cytotoxic effects"}, {"measurement": "DNA synthesis (thymidine incorporated into DNA)", "setting": "[6]", "value": "did not exhibit any inhibitory effect"}, {"measurement": "effect on cycloheximide-induced inhibition of DNA synthesis", "setting": "[6]", "value": "no synergistic or additive effect"}, {"measurement": "DNA synthesis (thymidine incorporated into DNA)", "setting": "[7]", "value": "did not exhibit any inhibitory effect"}, {"measurement": "effect on cycloheximide-induced inhibition of DNA synthesis", "setting": "[7]", "value": "no synergistic or additive effect"}, {"measurement": "inclusion formation by serovar D", "setting": "[8]", "value": "efficiently suppressed inclusion formation"}, {"measurement": "inhibition of MoPn growth (chlamydial DNA synthesis)", "setting": "[9]", "value": "dose-response curve of GM6001 inhibition of MoPn growth was obtained"}, {"measurement": "chlamydial (L2) growth, MOMP dot blot", "setting": "[10]", "value": "no MOMP signals"}, {"measurement": "chlamydial infection after pretreatment of EB stock", "setting": "[11]; EB stock incubated with GM6001, washed, added to untreated HeLa cells", "value": "completely ineffective"}, {"measurement": "chlamydial infection after pretreatment of host HeLa cells", "setting": "[11]; HeLa cells cultured 2 h with 20 μM GM6001, washed 3 times before infection", "value": "completely ineffective"}, {"measurement": "growth of Lactobacillus delbrueckii (OD600)", "setting": "[12]", "value": "did not show any effects"}, {"measurement": "growth of S. enterica in liquid medium", "setting": "[13]", "value": "had no effect"}, {"measurement": "growth of S. enterica inside HeLa cells (colony-forming units)", "setting": "[14]", "value": "did not inhibit"}, {"measurement": "inhibition at 20 µM", "setting": "[15]; Chlamydia, HeLa, 20 μM, added at the end of attachment/entry period, read-out: inhibition of EB production", "value": "> 100", "unit": "%"}, {"measurement": "inhibition of EB production", "setting": "[15]; added 8 h after infection", "value": "comparable inhibitory activity"}, {"measurement": "reduction in EB production", "setting": "[15]; treatment started 24 h after infection", "value": 99, "unit": "%"}]}
{"smiles": "C[C@@H]1C[C@@H]([C@H](O)CC2CC(=O)NC(=O)C2)C(=O)[C@@H](C)C1", "note": "[cycloheximide]", "values": [{"measurement": "DNA synthesis (thymidine incorporated into DNA)", "setting": "[6]; uninfected HeLa cells, 40 hours treatment", "value": "effectively inhibited DNA synthesis activity"}, {"measurement": "DNA synthesis (thymidine incorporated into DNA)", "setting": "[7]; uninfected A549 cells, 40 hours treatment", "value": "effectively inhibited DNA synthesis activity"}]}
{"smiles": "CNC(=O)[C@H](Cc1c[nH]c2ccccc12)NC(=O)[C@H](CC(C)C)NC(=O)OC(C)(C)C", "note": "[GM6001 Negative Control, N-t-butoxycarbonyl-L-leucyl-L-tryptophan methylamide]", "values": [{"measurement": "adverse effect on morphology of HeLa cells", "setting": "[5]; data not shown", "value": "no adverse effect"}, {"measurement": "DNA synthesis (thymidine incorporated into DNA)", "setting": "[6]", "value": "no adverse effect"}, {"measurement": "chlamydial (L2) growth, MOMP dot blot", "setting": "[10]", "value": "no detectable effect"}]}
